# Results taken from patent US6632665B1, “Human gene encoding 3′-5′ exonuclease” (Wake Forest University, priority 1999, dated 2003).
# B1: TREX1h: human 3'-5' exonuclease polypeptide, SEQ ID NO:2, expressed from pTREX1h/T7 (protein)
# chain: MGSQALPPGPMQTLIFFDMEATGLPFSQPKVTELCLLAVHRCALESPPTSQGPPPTVPPPPRVVDKLSLCVAPGKACSPAASEITGLSTAVLAAHGRQCFDDNLANLLLAFLRRQPQPWCLVAHNGDRYDFPLLQAELAMLGLTSALDGAFCVDSITALKALERASSPSEHGPRKSYSLGSIYTRLYGQSPPDSHTAEGDVLALLSICQWRPQALLRWVDAHARPFGTIRPMYGVTASARTKPRPSAVTTTAHLATTRNTSPSLGESRGTKDLPPVKDPGALSREGLLAPLGLLAILTLAVATLYGLSLATPGE
# modifications: HOMO SAPIENS
# B2: TREX2m: murine 3'-5' exonuclease polypeptide, SEQ ID NO:32, expressed from pTREX2m/T7 (protein, listed as Mus musculus)
# chain: MSEPPRAETFVFLDLEATGLPNMDPEIAEISLFAVHRSSLENPERDDSGSLVLPRVLDKLTLCMCPERPFTAKASEITGLSSESLMHCGKAGFNGAVVRTLQGFLSRQEGPICLVAHNGFDYDFPLLCTELQRLGAHLPQDTVCLDTLPALRGLDRAHSHGTRAQGRKSYSLASLFHRYFQAEPSAAHSAEGDVHTLLLIFLHRAPELLAWADEQARSWAHIEPMYVPPDGPSLEA
# Experiments:
# murine leukemia cells = murine leukemia cells treated for twelve hours with 6-MP; cited from earlier work
# HL-60 cells [1] = assay: intracellular accumulation of TIMP by HPLC; type: cell-based; conditions: HL-60 cells pretreated with 50 or 100 μM 6-MP
# Protocol: (§1) HL-60 cells were incubated with 6-mercaptopurine (6-MP) to allow intracellular levels of thioinosine monophosphate (TIMP) to accumulate. […] Cytoplasmic 6-MP is converted to an active nucleotide metabolite TIMP by the action of hypoxanthine phosphoribosyltransferase (HPRT). […] Intracellular accumulation of TIMP was determined by HPLC [Zimm, et al., Cancer Res. 45:4156-4161 (1985)]. Upon addition of araC, the amount of araC incorporated into DNA increased and total DNA synthesis decreased in cells pretreated with 6-MP relative to untreated cells. At peak intracellular levels of TIMP, araC incorporation into DNA relative to total DNA synthesis was 20-fold greater in the 6-MP treated cells.
# HL-60 cells [2] = assay: intracellular araCTP quantified by HPLC in 6-MP treated cells; type: cell-based; conditions: cells treated with 6-MP up to twelve hours, harvested one hour after addition of araC
# Protocol: The increased incorporation of araC into the DNA was not the result of increased accumulation of araC in the 6-MP treated cells. Cells were treated with 6-MP for varying times for up to twelve hours followed by incubation with […]. At time points up to twelve hours, cells were treated with araC and harvested one hour after addition of araC. The nucleotides were then separated using HPLC, and intracellular araCTP was quantified.
# (§2) Logarithmically growing cultures of HL-60 cells are incubated with 6-MP for varying times. The cultures are divided into two groups. The first group is treated with 1 μM ^3H-araC for 1 hour to measure araC in DNA. The second group is treated with ^3H-thymidine and 1 μM unlabeled araC for 1 hour to measure total DNA synthesis. Cells are pelleted, washed with PBS, and ^3H-araC or ^3H-thymidine in acid insoluble material is determined by scintillation counting. To measure araCTP in HL-60 cells, 6-MP treated samples are incubated with 1 μM ^3H-araC. Cells are pelleted and washed with PBS. The acid soluble nucleotides are collected and separated by HPLC (Partisil 10 SAX, Whatman). The fraction containing ^3HaraCTP is quantified by scintillation counting.
# HL-60 cells [3] = assay: araC incorporation into DNA and total DNA synthesis in 6-MP pretreated HL-60 cells; type: cell-based
# Protocol: as §1, §2
# HL-60 cells [4] = assay: cell killing by growth curves and clonogenic assays of treated cells; type: cell-based; conditions: 6-MP pretreatment plus araC
# [5] = test system: exonuclease activity specifically associated with DNA polymerase δ; conditions: Lee, et al. Biochemistry 19:215-219 (1980); cited from earlier work
# 30 kDa exonuclease = target: T1, 30 kDa exonuclease (Homo sapiens, UniProt Q9NSU2); assay: in vitro enzyme inhibition of the 30 kDa 3'-5' exonuclease; type: biochemical; conditions: 30 kDa exonuclease purified from myeloblastic leukemia cells
# T1 construct: endogenous in cells; host or cells: human myeloblastic leukemia cells (myeloblasts)
# T1 sequence (Q9NSU2 1-314): B1 chain
# Protocol: In order to assess the effect of intracellular TIMP that contributed to increased araC incorporation, exonuclease activity was partially purified from myeloblastic leukemia cells and in vitro enzyme inhibition studies ware carried out with TIMP. The majority of the cellular exonuclease activity was found in a band migrating on SDS-PAGE with a predicted molecular weight of 30 kDa.
# Inhibition studies were also carried out with the purified 30 kD exonuclease and either TIMP or dGMP.
# Useful methods in the practice of this example include the following: DNA pol δ may be purified from human myeloblasts using the methods of Syvaoja et al. (Proc. Natl. Acad. Sci., USA 87:6664-6668, 1990) through step 5. The specific activity of the DNA pol δ preparation is preferably about 3,500 units/mg. A unit of DNA pol δ catalyzes the incorporation of 1 nmol of total nucleotide per hour at 37° C. using 100 μM poly(dAdT) as template and reaction conditions as described by Lewis et al. (Biochemistry 33:14620-14624, 1994). […]
# To measure the 3′-5′ exonuclease activity, a 23 mer is labeled with ^32P at the 5′ position and used in reactions as ssDNA. […] Samples are dried, resuspended in 5 μl 95% formamide, and analyzed by electrophoresis through 15% polyacrylamide sequencing gels. Radiolabeled bands are visualized and quantified by phosphorimagery (Molecular Dynamics). […]
# [6] = test system: 30 kDa enzyme with 3'-5' exonuclease activity; assay: removal of 3' terminal araC from template primer by the 30 kDa exonuclease; type: biochemical, human, bovine; conditions: araC at the 3' terminus of the template primer
# Description: For protein purification from bovine thymus, an additional step using phenyl SUPEROSE was employed. In order to detect exonuclease activity in the cell extract, a biochemical assay was developed using DNA polymerase a and an oligonucleotide template primer with an araC analog at the 3′ terminus. In this assay, incorporation of radiolabeled nucleotides into the araC-template primer by the polymerase first requires that the araC analog be removed by a 3′-5′ exonuclease.
# [7] = test system: 32P-labeled 23 nucleotide oligomer; assay: exonuclease activity of protein extracts of transformed BL21/DE3 cells; type: biochemical; conditions: protein extract of BL21/DE3 cells, IPTG induced
# Protocol: To measure the 3′-5′ exonuclease activity, a 23 mer is labeled with ^32P at the 5′ position and used in reactions as ssDNA. Reaction mixtures (10 μl) are prepared containing 20 mM Tris-HCl, pH 7.5, 10 mM MgCl2, 2 mM DTT, 100 μg/mL BSA, 100 nM 23 mer, and 1 μl of the appropriate enzyme dilution. Incubation is 20 minutes at 37° C., and reactions are stopped by addition of 30 μl 95% ethanol. Samples are dried, resuspended in 5 μl 95% formamide, and analyzed by electrophoresis through 15% polyacrylamide sequencing gels. Radiolabeled bands are visualized and quantified by phosphorimagery (Molecular Dynamics). One unit of exonuclease is the amount of enzyme needed to degrade 1 pmol of 3′ termini in 1 min at 37° C.
# The pTREX1h/T7 plasmid was electroporated into BL21/DE3 cells, which were grown at 23° C. to a density of OD595 0.3. Isopropylthiogalactopyranoside (IPTG) was added to induce overexpression and incubation of the cells was continued overnight. Protein extracts were prepared from the cells and enzyme activity assayed using a ^32P-labeled 23 nucleotide oligomer.
# Template DNA was the mouse EST 480859. PCR was carried out as described for TREX1h and the resulting amplification product was subcloned as for TREX1h. The resulting expression plasmid was designated pTREX2m/T7 and expression of the encoded gene was carried out as described for TREX1h. […]
# [8] = HL-60 cells pretreated with 6-MP relative to untreated cells, upon addition of araC
molecule,measurement,setting,value
"Sc1ncnc2nc[nH]c12 [6-MP, 6-mercaptopurine]",intracellular level of TIMP,murine leukemia cells,approximately 180 μM
same,time of peak intracellular TIMP concentration,HL-60 cells [1],approximately twelve
same,variation of intracellular araCTP levels during the time course,HL-60 cells [2],less than two-fold
same,amount of araC incorporated into DNA,HL-60 cells [3]; [8],increased
same,total DNA synthesis,HL-60 cells [3]; [8],decreased
same,"araC incorporation into DNA relative to total DNA synthesis, 6-MP treated vs untreated cells","HL-60 cells [3]; HL-60 cells pretreated with 6-MP, at peak intracellular levels of TIMP, then araC",20 fold
same,cell killing,HL-60 cells [4],increase in cell killing
"O=P(O)(O)OC[C@H]1O[C@@H](n2cnc3c(S)ncnc32)[C@H](O)[C@@H]1O [TIMP, thioinosine monophosphate]",inhibition of DNA polymerase δ associated exonuclease activity,[5],inhibit exonuclease activity
same,Ki,30 kDa exonuclease,17 µM
"Nc1ccn([C@@H]2O[C@H](CO)[C@@H](O)[C@@H]2O)c(=O)n1 [araC, 1-β-D-arabinofuranosylcytosine]",apparent rate of araC removal by the exonuclease,[6],approximately the same rate as the rate of deoxynucleotide monophosphate removal
Nc1nc2c(ncn2[C@H]2C[C@H](O)[C@@H](COP(=O)(O)O)O2)c(=O)[nH]1 [dGMP],Ki,30 kDa exonuclease,56 µM
B1,exonuclease activity versus control cells with parental vector only,[7],30 fold
B2,exonuclease activity versus control cells with parental vector only,[7],30 fold
